Measured values from patent US9492470B2, “Use of HMGA-targeted phosphorothioate DNA aptamers to suppress carcinogenic activity and increase sensitivity to chemotherapy agents in human cancer cells” (MIAMI UNIVERSITY, priority 2012, dated 2016).
Where two headings read alike, the source gives them in different places. In the oligonucleotide strings, read from the 5' end, every base follows the letter of its sugar. An asterisk marks phosphorothioate; unmarked linkages are phosphodiester. Other units and linkages are bracketed, terminal groups are in braces. A string of capitals states the bases alone. d = 2'-deoxy (DNA)

Legend:
AsPC-1 cells [1] = test: Cell growth with gemcitabine treatment after sDNA transfection, AsPC-1; format: cell-based, Human; details: AsPC-1, 0.1 ug sDNA, 96 hours
Procedure: (§1) Cells were fixed after 96 hours and numbers of viable cells counted by measuring the absorbance at 570 nm.
(§2) Cells were transfected with 0.1 μg of TC-sDNA, Mix-sDNA, CG-sDNA, and AT-sDNA.

AsPC-1 cells [2] = details: for cells dead compared to UT: versus untransfected (UT) cells
Procedure: AsPC-1 cells were grown in Roswell Park Memorial Institute medium supplemented with 10% FBS, and 1% penicillin-streptomycin.
Transfections using sDNA at concentrations of 0.1 and 0.25 μg per well were conducted with 5×10^4 and 1×10^5 Miapaca-2 and AsPC-1 cells, respectively, in 24-well plates and all data were collected in quadruplicate. Miapaca-2 and AsPC-1 cells were transfected with sDNA using Lipofectamine 2000 (Invitrogen,™ Life Technologies Corporation, Carlsbad, Calif.) according to the manufacturer's protocol.
Briefly, AsPC-1 cells grown in 10% FBS containing RPIM medium were trypsinized using a trypsin-EDTA solution commercially available from the Sigma-Aldrich, and used to seed fresh media in a 24-well plate with 10^5 cells per well.
After 48 hours, the cells were transfected with the selected sDNA using Lipofectamine 2000 (Invitrogen,™ Life Technologies Corporation, Carlsbad, Calif.) according to the manufacturer's protocol. […] The cells were then fixed with 4% paraformaldehyde in PBS for 20 minutes and stained in 0.1% crystal violet stain (Sigma-Aldrich) for 30 minutes. The cells were washed under running tap water, air dried, and extracted with 0.2% Triton™ X-100 for 30 minutes. […] The absorbance of the Triton X-100 was measured at 570 nm using a HTS microplate reader. All results were analyzed for statistical significance using a student's unpaired t-test.

Miapaca-2 cells [3] = test: Cell growth with gemcitabine treatment after sDNA transfection, Miapaca-2; format: cell-based, Human; details: Miapaca-2, 0.1 ug sDNA, Gemcitabine 1 nM, 96 hours
Miapaca-2 cells [4] = test: as above; format: cell-based, Human; details: 96 hours; for Fold change in numbers of viable cells normalized relative to TC: Miapaca-2, 0.1 ug sDNA
Procedure: as §1, §2

Miapaca-2 cells [5] = test: Cell viability (crystal violet) after sDNA transfection, Miapaca-2; format: cell-based, Human; details: for cells dead compared to UT: versus untransfected (UT) cells
Procedure: The absorbance was measured at 570 nm in quadruplicate. All data from control cells were combined and averaged.

[6] = AsPC-1, 0.1 μg sDNA, 96 h after transfection
[7] = Miapaca-2, 0.1 μg sDNA, 96 h after transfection

Mix-sDNA: random phosphorothioate DNA (SEQ ID NO: 13), control lacking a HMGA-specific binding sequence (DNA dC*dC*dC*dA*dC*dT*dG*dC*dA*dG*dT*dC*dG*dG*dA*dC*dT*dC*dA*dC*dT*dC*dG*dC)
Fold change in numbers of viable cells normalized relative to TC (AsPC-1 cells [1]; Gemcitabine 0 nM): −1.14 fold | Fold change in numbers of viable cells normalized relative to TC (AsPC-1 cells [1]; Gemcitabine 1 nM): −1.06 fold | Fold change in numbers of viable cells normalized relative to TC (AsPC-1 cells [1]; Gemcitabine 10 nM): −1.16 fold | Fold change in numbers of viable cells normalized relative to TC (AsPC-1 cells [1]; Gemcitabine 30 nM): −1.17 fold | Fold change in numbers of viable cells normalized relative to TC (AsPC-1 cells [1]; Gemcitabine 100 nM): −1.36 fold | Fold change in numbers of viable cells normalized relative to TC (AsPC-1 cells [1]; Gemcitabine 1000 nM): −1.59 fold | cells dead compared to UT (AsPC-1 cells [2]; AsPC-1, 0.1 ug sDNA, 48 hrs): 28.0% | Fold change in numbers of viable cells between TC and sDNA transfected cells (in parentheses) (AsPC-1 cells [2]; [6]): (−1.14) fold | Fold change in numbers of viable cells between UT and transfected cells (AsPC-1 cells [2]; [6]): −1.24 fold | cells dead compared to UT (AsPC-1 cells [2]; AsPC-1, 0.1 ug sDNA, 96 hrs): 19.4% | difference in cell viability between TC cells and sDNA transfected cells (AsPC-1 cells [2]; AsPC-1, 0.1 ug sDNA, both 48 and 96 hours): no significant differences | Fold change in numbers of viable cells normalized relative to TC (Miapaca-2 cells [3]): 1.12 fold | cells dead / change in cell viability (Miapaca-2 cells [4]; Miapaca-2, 0.1 μg sDNA, 1 nM gemcitabine): no significant change | cells surviving (Miapaca-2 cells [4]; Miapaca-2, 0.1 μg sDNA, 10 nM gemcitabine, normalized to 0 nM gemcitabine): 94.5% | Fold change in numbers of viable cells normalized relative to TC (Miapaca-2 cells [4]; Gemcitabine 0 nM): 1.07 fold | Fold change in numbers of viable cells normalized relative to TC (Miapaca-2 cells [4]; Gemcitabine 10 nM): 1.01 fold | Fold change in numbers of viable cells normalized relative to TC (Miapaca-2 cells [4]; Gemcitabine 30 nM): −2.65 fold | Fold change in numbers of viable cells normalized relative to TC (Miapaca-2 cells [4]; Gemcitabine 100 nM): −4.41 fold | Fold change in numbers of viable cells normalized relative to TC (Miapaca-2 cells [4]; Gemcitabine 1000 nM): −4.48 fold | cells dead compared to UT (Miapaca-2 cells [5]; Miapaca-2, 0.1 ug sDNA, 48 hrs): 30.4% | Fold change in numbers of viable cells between TC and sDNA transfected cells (in parentheses) (Miapaca-2 cells [5]; [7]): (1.07) fold | Fold change in numbers of viable cells between UT and transfected cells (Miapaca-2 cells [5]; [7]): −1.45 fold | cells dead compared to UT (Miapaca-2 cells [5]; Miapaca-2, 0.1 ug sDNA, 96 hrs): 33.3% | difference in cell viability between TC cells and sDNA transfected cells (Miapaca-2 cells [5]; Miapaca-2, 0.1 ug sDNA, both 48 and 96 hours): no significant differences
